According to US8748417B2, “Amino-pyrrolidine-azetidine diamides as monoacylglycerol lipase inhibitors” (Janssen Pharmaceutica, NV, priority 2010, dated 2014):

target: T1, purified wild type MGL (wt-MGLL 6H-11-313) (Homo sapiens, UniProt Q99685); test: MGL enzyme activity assay (4MU-B cleavage), wild type MGL; format: biochemical; conditions: wild type MGL 5 nM, 4MU-B 10 μM, 37° C.; read-out: MGL wild type inh IC50
T1 construct: purified wild type MGL (wt-MGLL 6H-11-313)
T1 sequence (Q99685 1-303): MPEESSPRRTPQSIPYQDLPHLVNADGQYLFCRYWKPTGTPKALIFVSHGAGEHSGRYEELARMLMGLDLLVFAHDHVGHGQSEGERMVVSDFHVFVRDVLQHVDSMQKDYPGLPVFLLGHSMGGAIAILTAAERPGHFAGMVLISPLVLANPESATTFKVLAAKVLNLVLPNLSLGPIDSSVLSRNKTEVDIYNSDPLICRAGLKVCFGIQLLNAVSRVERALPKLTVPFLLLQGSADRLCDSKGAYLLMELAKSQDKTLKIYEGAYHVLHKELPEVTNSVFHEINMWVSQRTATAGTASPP
Procedure: All rate-based assays were performed in black 384-well polypropylene PCR microplates (Abgene) in a total volume of 30 μL. Substrate 4-methylumbelliferyl butyrate (4MU-B; Sigma) and either purified mutant MGL (mut-MGLL 11-313 L179S L186S) or purified wild type MGL (wt-MGLL 6H-11-313) were diluted separately into 20 mM PIPES buffer (pH=7.0), containing 150 mM NaCl and 0.001% Tween 20. Compounds of Formula (I) were pre-dispensed (50 nL) into the assay plate using a Cartesian Hummingbird prior to adding 4MU-B (25 μL of 1.2× solution to a final concentration of 10 μM) followed by enzyme (5 μL of a 6× solution to a final concentration of 5 nM) to initiate the reaction. Final compound concentrations ranged from 17 to 0.0003 μM. The fluorescence change due to 4MU-B cleavage was monitored with excitation and emission wavelengths of 335 and 440 nm, respectively, and a bandwidth of 10 nm (Safire^2, Tecan) at 37° C. for 5 min.
The IC50 values for the following compounds were determined using Microsoft Office Excel from a fit of the equation to the concentration-response plot of the fractional activity as a function of inhibitor concentration.

Row | SMILES | IC50 [µM]
1 | Cn1nc(-c2ccc(F)cc2)c2cc(C(=O)N3CC(N[C@H]4CCN(C(=O)c5ccccc5)C4)C3)ccc21 [Cpd 211, (3S)-N-(1-{[3-(4-Fluorophenyl)-1-methyl-1H-indazol-5-yl]carbonyl}azetidin-3-yl)-1-(phenylcarbonyl)pyrrolidin-3-amine] | 0.943
2 | O=C(c1ccc2c(cnn2-c2ccccc2)c1)N1CC(N[C@H]2CCN(C(=O)c3ccccc3)C2)C1 [Cpd 156, (3S)-1-(Phenylcarbonyl)-N-{1-[(1-phenyl-1H-indazol-5-yl)carbonyl]azetidin-3-yl}pyrrolidin-3-amine] | 0.482
3 | Cn1nc(-c2cccc(F)c2)c2cc(C(=O)N3CC(N[C@H]4CCN(C(=O)c5cscn5)C4)C3)ccc21 [Cpd 200, (3S)-N-(1-{[3-(3-Fluorophenyl)-1-methyl-1H-indazol-5-yl]carbonyl}azetidin-3-yl)-1-(1,3-thiazol-4-ylcarbonyl)pyrrolidin-3-amine] | 0.843
4 | Cc1nc(-c2ccc(F)cc2)sc1C(=O)N1CC(N[C@H]2CCN(C(=O)c3nccs3)C2)C1 [Cpd 135, (3S)-N-(1-{[2-(4-Fluorophenyl)-4-methyl-1,3-thiazol-5-yl]carbonyl}azetidin-3-yl)-1-(1,3-thiazol-2-ylcarbonyl)pyrrolidin-3-amine] | 1.13
5 | Cc1c(C(=O)N2CC(N[C@H]3CCN(C(=O)c4ccccc4)C3)C2)sc2cc(F)ccc12 [Cpd 86, (3S)-N-{1-[(6-Fluoro-3-methyl-1-benzothiophen-2-yl)carbonyl]azetidin-3-yl}-1-(phenylcarbonyl)pyrrolidin-3-amine] | 0.298
6 | Cc1c(C(=O)N2CC(N(C=O)[C@H]3CCN(C(=O)c4cscn4)C3)C2)sc2ccc(Cl)cc12 [Cpd 83, N-{1-[(5-Chloro-3-methyl-1-benzothiophen-2-yl)carbonyl]azetidin-3-yl}-N-[(3S)-1-(1,3-thiazol-4-ylcarbonyl)pyrrolidin-3-yl]formamide] | 2.44
7 | O=C(c1cscn1)N1CC[C@H](NC2CN(C(=O)c3cc4cc(Br)ccc4s3)C2)C1 [Cpd 98, (3S)-N-{1-[(5-Bromo-1-benzothiophen-2-yl)carbonyl]azetidin-3-yl}-1-(1,3-thiazol-4-ylcarbonyl)pyrrolidin-3-amine] | 3.1
8 | O=C(c1ccc2c(-c3ccccc3)ncnc2c1)N1CC(N[C@H]2CCN(C(=O)c3cscn3)C2)C1 [Cpd 112, (3S)-N-{1-[(4-Phenylquinazolin-7-yl)carbonyl]azetidin-3-yl}-1-(1,3-thiazol-4-ylcarbonyl)pyrrolidin-3-amine] | 1.66
9 | O=C(c1ccc2c(-c3ccc(C(F)(F)F)cc3)ncnc2c1)N1CC(N[C@H]2CCN(C(=O)c3ccccc3)C2)C1 [Cpd 109, (3S)-1-(Phenylcarbonyl)-N-[1-({4-[4-(trifluoromethyl)phenyl]quinazolin-7-yl}carbonyl)azetidin-3-yl]pyrrolidin-3-amine] | 0.857
10 | O=C(c1cscn1)N1CC[C@H](NC2CN(C(=O)c3cc4ccc(C(F)(F)F)cc4s3)C2)C1 [Cpd 139, (3S)-1-(1,3-Thiazol-4-ylcarbonyl)-N-(1-{[6-(trifluoromethyl)-1-benzothiophen-2-yl]carbonyl}azetidin-3-yl)pyrrolidin-3-amine] | 0.311
11 | Cn1cc(-c2ccccc2)c2ccc(C(=O)N3CC(N[C@H]4CCN(C(=O)c5cscn5)C4)C3)cc21 [Cpd 170, (3S)-N-{1-[(1-Methyl-3-phenyl-1H-indol-6-yl)carbonyl]azetidin-3-yl}-1-(1,3-thiazol-4-ylcarbonyl)pyrrolidin-3-amine] | 0.35
12 | O=C(c1ccccc1)N1CC[C@H](NC2CN(C(=O)c3cc4cc(Br)ccc4o3)C2)C1 [Cpd 107, (3S)-N-{1-[(5-Bromo-1-benzofuran-2-yl)carbonyl]azetidin-3-yl}-1-(phenylcarbonyl)pyrrolidin-3-amine] | > 16.7
13 | O=C(c1ccc2c(cnn2-c2ccccc2)c1)N1CC(N[C@H]2CCN(C(=O)c3nccs3)C2)C1 [Cpd 120, (3S)-N-{1-[(1-Phenyl-1H-indazol-5-yl)carbonyl]azetidin-3-yl}-1-(1,3-thiazol-2-ylcarbonyl)pyrrolidin-3-amine] | 0.372
14 | Cc1nc(-c2ccc(Cl)cc2)sc1C(=O)N1CC(N[C@H]2CCN(C(=O)c3nccs3)C2)C1 [Cpd 137, (3S)-N-(1-{[2-(4-Chlorophenyl)-4-methyl-1,3-thiazol-5-yl]carbonyl}azetidin-3-yl)-1-(1,3-thiazol-2-ylcarbonyl)pyrrolidin-3-amine] | 0.446
15 | O=C(c1ccc2c(-c3ccccc3)ncnc2c1)N1CC(N[C@H]2CCN(C(=O)c3ccccc3)C2)C1 [Cpd 108, (3S)-1-(Phenylcarbonyl)-N-{1-[(4-phenylquinazolin-7-yl)carbonyl]azetidin-3-yl}pyrrolidin-3-amine] | 1.03
16 | O=C(c1ccccc1)N1CC[C@H](NC2CN(C(=O)c3cc4cc(-c5ccccc5)ccc4o3)C2)C1 [Cpd 121, (3S)-N-{1-[(5-Phenyl-1-benzofuran-2-yl)carbonyl]azetidin-3-yl}-1-(phenylcarbonyl)pyrrolidin-3-amine] | 1.75

Compounds with a lower IC50, results first:

Row | IC50 [µM] | SMILES
17 | 0.179 | O=C(c1ccc2c(-c3ccc(C(F)(F)F)cc3)ncnc2c1)N1CC(N[C@H]2CCN(C(=O)c3nccs3)C2)C1 [Cpd 111, (3S)-1-(1,3-Thiazol-2-ylcarbonyl)-N-[1-({4-[4-(trifluoromethyl)phenyl]quinazolin-7-yl}carbonyl)azetidin-3-yl]pyrrolidin-3-amine]
18 | 0.114 | O=C(c1ccc2c(-c3ccc(F)cc3)c[nH]c2c1)N1CC(N[C@H]2CCN(C(=O)c3cscn3)C2)C1 [Cpd 190, (3S)-N-(1-{[3-(4-Fluorophenyl)-1H-indol-6-yl]carbonyl}azetidin-3-yl)-1-(1,3-thiazol-4-ylcarbonyl)pyrrolidin-3-amine]
19 | 0.281 | O=C(c1ccccc1)N1CC[C@H](NC2CN(C(=O)c3sc4cc(F)ccc4c3C3CCC3)C2)C1 [Cpd 79, (3S)-N-{1-[(3-Cyclobutyl-6-fluoro-1-benzothiophen-2-yl)carbonyl]azetidin-3-yl}-1-(phenylcarbonyl)pyrrolidin-3-amine]
20 | 0.21 | O=C(c1ccccc1)N1CC[C@H](NC2CN(C(=O)c3sc4cc(C(F)(F)F)ccc4c3C3CC3)C2)C1 [Cpd 75, (3S)-N-(1-{[3-Cyclopropyl-6-(trifluoromethyl)-1-benzothiophen-2-yl]carbonyl}azetidin-3-yl)-1-(phenylcarbonyl)pyrrolidin-3-amine]
21 | 0.176 | Cc1cc(-c2cccc(C(F)(F)F)c2)ccc1C(=O)N1CC(N[C@H]2CCN(C(=O)c3ccccc3)C2)C1 [Cpd 153, (3S)-N-(1-{[3-Methyl-3′-(trifluoromethyl)biphenyl-4-yl]carbonyl}azetidin-3-yl)-1-(phenylcarbonyl)pyrrolidin-3-amine]
22 | 0.107 | Cn1nc(-c2cccc(F)c2)c2cc(C(=O)N3CC(N[C@H]4CCN(C(=O)c5nccs5)C4)C3)ccc21 [Cpd 199, (3S)-N-(1-{[3-(3-Fluorophenyl)-1-methyl-1H-indazol-5-yl]carbonyl}azetidin-3-yl)-1-(1,3-thiazol-2-ylcarbonyl)pyrrolidin-3-amine]
23 | 0.205 | Cc1ccc2sc(C(=O)N3CC(N[C@H]4CCN(C(=O)c5cscn5)C4)C3)c(C(F)(F)F)c2c1 [Cpd 184, (3S)-N-(1-{[5-Methyl-3-(trifluoromethyl)-1-benzothiophen-2-yl]carbonyl}azetidin-3-yl)-1-(1,3-thiazol-4-ylcarbonyl)pyrrolidin-3-amine]
24 | 0.133 | O=C(c1cc2cc(Br)ccc2s1)N1CC(N[C@H]2CCN(C(=O)c3nccs3)C2)C1 [Cpd 97, (3S)-N-{1-[(5-Bromo-1-benzothiophen-2-yl)carbonyl]azetidin-3-yl}-1-(1,3-thiazol-2-ylcarbonyl)pyrrolidin-3-amine]
25 | 0.279 | Cn1nc(-c2ccc(F)cc2)c2cc(C(=O)N3CC(N[C@H]4CCN(C(=O)c5nccs5)C4)C3)ccc21 [Cpd 209, (3S)-N-(1-{[3-(4-Fluorophenyl)-1-methyl-1H-indazol-5-yl]carbonyl}azetidin-3-yl)-1-(1,3-thiazol-2-ylcarbonyl)pyrrolidin-3-amine]
26 | 0.199 | Cn1nc(-c2ccccc2)c2cc(C(=O)N3CC(N[C@H]4CCN(C(=O)c5ccccc5)C4)C3)ccc21 [Cpd 197, (3S)-N-{1-[(1-Methyl-3-phenyl-1H-indazol-5-yl)carbonyl]azetidin-3-yl}-1-(phenylcarbonyl)pyrrolidin-3-amine]
27 | 0.154 | O=C(c1ccccc1)N1CC[C@H](NC2CN(C(=O)c3sc4cc(C(F)(F)F)ccc4c3F)C2)C1 [Cpd 89, (3S)-N-(1-{[3-Fluoro-6-(trifluoromethyl)-1-benzothiophen-2-yl]carbonyl}azetidin-3-yl)-1-(phenylcarbonyl)pyrrolidin-3-amine]
28 | < 0.005 | Cc1c(C(=O)N2CC(N[C@H]3CCN(C(=O)c4cscn4)C3)C2)sc2ccc(-c3cccc(C(F)(F)F)c3)cc12 [Cpd 125, (3S)-N-[1-({3-Methyl-5-[3-(trifluoromethyl)phenyl]-1-benzothiophen-2-yl}carbonyl)azetidin-3-yl]-1-(1,3-thiazol-4-ylcarbonyl)pyrrolidin-3-amine]
